Data as given in PubChem BioAssay AID342 (DTP/NCI, 2004).
Several values for one entry are separate records, joined by “and”; a condition that tells them apart may be missing. Equal values may be shown once.

System: Swiss mice, Sarcoma 180 sc, mean tumor weight T/C
Test: NCI In Vivo Anticancer Drug Screen. Data for tumor model Sarcoma 180 (subcutaneous) in Swiss mice
Details: endpoint: mean tumor weight, higher = larger tumour
Method in brief: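 Antitumor activity is assessed in mice with transplantable tumors. Treated (T) and vehicle control (C) groups are compared on survival or tumor size.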

[1] = dose: 250.0 mg/kg/injection, schedule: Q01DX007 (ip), vehicle: carboxymethylcellulose (CMC)

With `NNC(=O)c1ccncc1` the T/C (dose: 7.5 mg/kg/injection, schedule: Q#A X014 (ip), vehicle: carboxymethylcellulose (CMC)) was 112 % of control, the T/C (dose: 15.0 mg/kg/injection, schedule: Q#A X014 (ip), vehicle: carboxymethylcellulose (CMC)) was 105 % of control and the T/C (dose: 30.0 mg/kg/injection, schedule: Q#A X014 (ip), vehicle: carboxymethylcellulose (CMC)) was 101 % of control. The T/C (dose: 60.0 mg/kg/injection, schedule: Q#A X014 (ip), vehicle: carboxymethylcellulose (CMC)) was 74 % of control.
`CCCC(=O)OCC1OC(n2cnc3c(=S)nc[nH]c32)C(OC(=O)CCC)C1OC(=O)CCC` (centres undefined) was tested, and the T/C [1] was 36 % of control.
In the case of `O=C(N[C@H](CO)[C@H](O)c1ccc([N+](=O)[O-])cc1)C(Cl)Cl`, the T/C (dose: 125.0 mg/kg/injection, schedule: Q01DX007 (ip), vehicle: carboxymethylcellulose (CMC)) is reported as 99 % of control, the T/C [1] is reported as 111 % of control and 112 % of control and the T/C (dose: 375.0 mg/kg/injection, schedule: Q#A X014 (ip), vehicle: carboxymethylcellulose (CMC)) is reported as 45 % of control. The T/C (dose: 400.0 mg/kg/injection, schedule: Q01DX007 (ip), vehicle: carboxymethylcellulose (CMC)) was 76 % of control, the T/C (dose: 666.66 mg/kg/injection, schedule: Q01DX007 (ip), vehicle: carboxymethylcellulose (CMC)) was 105 % of control and the T/C (dose: 1000.0 mg/kg/injection, schedule: Q01DX007 (ip), vehicle: carboxymethylcellulose (CMC)) was 97 % of control.
In the case of `CC1=CC(O)C(O)C2(C)C1CC1OC(=O)C(O)C3C(C)C(O)C4(O)OCC13C42` (centres undefined), the T/C (dose: 5.0 mg/kg/injection, schedule: Q01DX007 (sc), vehicle: olive oil, sesame oil, peanut oil) is reported as 90 % of control, the T/C (dose: 10.0 mg/kg/injection, schedule: Q01DX007 (sc), vehicle: olive oil, sesame oil, peanut oil) is reported as 64 % of control and the T/C (dose: 20.0 mg/kg/injection, schedule: Q01DX007 (sc), vehicle: olive oil, sesame oil, peanut oil) is reported as 96 % of control. The T/C (dose: 40.0 mg/kg/injection, schedule: Q01DX007 (sc), vehicle: olive oil, sesame oil, peanut oil) was 85 % of control and 86 % of control and the T/C (dose: 135.0 mg/kg/injection, schedule: Q01DX007 (sc), vehicle: olive oil, sesame oil, peanut oil) was 83 % of control.
`Cc1ncc([N+](=O)[O-])n1CCCl` was tested, and the T/C (dose: 62.5 mg/kg/injection, schedule: Q01DX007 (ip), vehicle: saline) was 108 % of control and the T/C (dose: 250.0 mg/kg/injection, schedule: Q01DX007 (ip), vehicle: saline) was 78 % of control.
In the case of `CN(C)/C=N/c1nccs1`, the T/C (dose: 83.0 mg/kg/injection, schedule: Q01DX007 (ip), vehicle: saline) is reported as 58 % of control and 70 % of control and the T/C (dose: 125.0 mg/kg/injection, schedule: Q01DX007 (ip), vehicle: saline) is reported as 34 % of control and 43 % of control.
For `Oc1ccccc1C(Nc1nc2ccccc2s1)c1ccc2cccnc2c1O` (centres undefined), the T/C (dose: 62.0 mg/kg/injection, schedule: Q01DX007 (ip), vehicle: other) was 94 % of control, the T/C (dose: 125.0 mg/kg/injection, schedule: Q01DX007 (ip), vehicle: other) was 97 % of control and the T/C (dose: 250.0 mg/kg/injection, schedule: Q01DX007 (ip), vehicle: other) was 46 % of control.
With `CN1CC2CC(C1)c1cccc(=O)n1C2` (centres undefined) the T/C (dose: 6.6 mg/kg/injection, schedule: Q01DX007 (ip), vehicle: saline) was 111 % of control, the T/C (dose: 10.0 mg/kg/injection, schedule: Q01DX007 (ip), vehicle: saline) was 49 % of control and the T/C (dose: 15.0 mg/kg/injection, schedule: Q01DX007 (ip), vehicle: saline) was 113 % of control. For the same compound, the T/C (dose: 22.0 mg/kg/injection, schedule: Q01DX007 (ip), vehicle: saline) was 74 % of control.
With `CC1C[C@@H]2[C@H]([C@@H](O)C[C@@]3(C)[C@H]2CC[C@]3(O)C(=O)CF)[C@@]2(C)CCC(=O)C=C12` (some centres undefined) the T/C (dose: 5.2 mg/kg/injection, schedule: Q01DX007 (sc), vehicle: steriod suspending solution) was 106 % of control, the T/C (dose: 10.5 mg/kg/injection, schedule: Q01DX007 (sc), vehicle: steriod suspending solution) was 105 % of control and the T/C (dose: 21.2 mg/kg/injection, schedule: Q01DX007 (sc), vehicle: steriod suspending solution) was 81 % of control. The T/C (dose: 42.5 mg/kg/injection, schedule: Q01DX007 (sc), vehicle: steriod suspending solution) was 45 % of control, the T/C (dose: 62.0 mg/kg/injection, schedule: Q#A X014 (sc), vehicle: steriod suspending solution) was 55 % of control and 57 % of control and the T/C (dose: 85.0 mg/kg/injection, schedule: Q01DX007 (sc), vehicle: steriod suspending solution) was 25 % of control. The T/C (dose: 93.5 mg/kg/injection, schedule: Q#A X014 (sc), vehicle: steriod suspending solution) was 36 % of control and 41 % of control and 50 % of control, the T/C (dose: 210.75 mg/kg/injection, schedule: Q#A X014 (sc), vehicle: steriod suspending solution) was 38 % of control and 52 % of control and the T/C (dose: 300.0 mg/kg/injection, schedule: Q01DX007 (sc), vehicle: steriod suspending solution) was 26 % of control. The T/C (dose: 600.0 mg/kg/injection, schedule: Q01DX007 (sc), vehicle: steriod suspending solution) was 20 % of control.
With `CN(N=O)C(N)=O` the T/C (dose: 1.4 mg/kg/injection, schedule: Q#A X014 (ip), vehicle: carboxymethylcellulose (CMC)) was 45 % of control, the T/C (dose: 1.5 mg/kg/injection, schedule: Q#A X014 (ip), vehicle: carboxymethylcellulose (CMC)) was 63 % of control and the T/C (dose: 2.81 mg/kg/injection, schedule: Q#A X014 (ip), vehicle: carboxymethylcellulose (CMC)) was 53 % of control. For the same compound, the T/C (dose: 3.0 mg/kg/injection, schedule: Q#A X014 (ip), vehicle: carboxymethylcellulose (CMC)) was 73 % of control, the T/C (dose: 5.62 mg/kg/injection, schedule: Q#A X014 (ip), vehicle: carboxymethylcellulose (CMC)) was 27 % of control and the T/C (dose: 6.0 mg/kg/injection, schedule: Q#A X014 (ip), vehicle: carboxymethylcellulose (CMC)) was 41 % of control. For the same compound, the T/C (dose: 7.5 mg/kg/injection, schedule: Q01DX007 (ip), vehicle: carboxymethylcellulose (CMC)) was 67 % of control, the T/C (dose: 9.6 mg/kg/injection, schedule: Q01DX007 (ip), vehicle: carboxymethylcellulose (CMC)) was 65 % of control and the T/C (dose: 11.25 mg/kg/injection, schedule: Q01DX007 (ip), vehicle: carboxymethylcellulose (CMC)) was 73 % of control. For the same compound, the T/C (dose: 12.0 mg/kg/injection, schedule: Q01DX007 (ip), vehicle: carboxymethylcellulose (CMC)) was 49 % of control, the T/C (dose: 12.0 mg/kg/injection, schedule: Q#A X014 (ip), vehicle: carboxymethylcellulose (CMC)) was 35 % of control and the T/C (dose: 15.0 mg/kg/injection, schedule: Q01DX007 (ip), vehicle: carboxymethylcellulose (CMC)) was 30 % of control. For the same compound, the T/C (dose: 16.0 mg/kg/injection, schedule: Q01DX007 (ip), vehicle: carboxymethylcellulose (CMC)) was 51 % of control, the T/C (dose: 22.5 mg/kg/injection, schedule: Q01DX007 (ip), vehicle: carboxymethylcellulose (CMC)) was 14 % of control and the T/C (dose: 24.0 mg/kg/injection, schedule: Q01DX007 (ip), vehicle: carboxymethylcellulose (CMC)) was 31 % of control.
With `Nc1nc(SC2CCCCC2)c2[nH]cnc2n1` the T/C (dose: 120.0 mg/kg/injection, schedule: Q01DX007 (ip), vehicle: carboxymethylcellulose (CMC)) was 89 % of control and the T/C (dose: 240.0 mg/kg/injection, schedule: Q01DX007 (ip), vehicle: carboxymethylcellulose (CMC)) was 33 % of control.
For `CS(=O)(=O)OCCCCOS(C)(=O)=O`, the T/C (dose: 4.12 mg/kg/injection, schedule: Q#A X014 (ip), vehicle: carboxymethylcellulose (CMC)) was 108 % of control, the T/C (dose: 6.25 mg/kg/injection, schedule: Q#A X014 (ip), vehicle: carboxymethylcellulose (CMC)) was 91 % of control and the T/C (dose: 8.25 mg/kg/injection, schedule: Q#A X014 (ip), vehicle: carboxymethylcellulose (CMC)) was 119 % of control. For the same compound, the T/C (dose: 9.87 mg/kg/injection, schedule: Q01DX007 (ip), vehicle: carboxymethylcellulose (CMC)) was 87 % of control, the T/C (dose: 12.5 mg/kg/injection, schedule: Q#A X014 (ip), vehicle: carboxymethylcellulose (CMC)) was 103 % of control and the T/C (dose: 16.5 mg/kg/injection, schedule: Q#A X014 (ip), vehicle: carboxymethylcellulose (CMC)) was 85 % of control. For the same compound, the T/C (dose: 19.75 mg/kg/injection, schedule: Q01DX007 (ip), vehicle: carboxymethylcellulose (CMC)) was 65 % of control, the T/C (dose: 25.0 mg/kg/injection, schedule: Q#A X014 (ip), vehicle: carboxymethylcellulose (CMC)) was 96 % of control and the T/C (dose: 33.0 mg/kg/injection, schedule: Q#A X014 (ip), vehicle: carboxymethylcellulose (CMC)) was 66 % of control. The T/C (dose: 39.5 mg/kg/injection, schedule: Q01DX007 (ip), vehicle: carboxymethylcellulose (CMC)) was 60 % of control.
`CC(=O)OCC(=O)[C@@]1(O)CC[C@H]2[C@@H]3C[C@H](C)C4=CC(=O)CC[C@]4(C)[C@H]3[C@@H](O)C[C@@]21C` was tested, and the T/C (dose: 3.0 mg/kg/injection, schedule: Q#A X014 (sc), vehicle: steriod suspending solution) was 64 % of control, the T/C (dose: 6.25 mg/kg/injection, schedule: Q#A X014 (sc), vehicle: steriod suspending solution) was 77 % of control and the T/C (dose: 12.5 mg/kg/injection, schedule: Q01DX007 (sc), vehicle: steriod suspending solution) was 44 % of control. For the same compound, the T/C (dose: 12.5 mg/kg/injection, schedule: Q#A X014 (sc), vehicle: steriod suspending solution) was 48 % of control, the T/C (dose: 25.0 mg/kg/injection, schedule: Q01DX007 (sc), vehicle: steriod suspending solution) was 37 % of control and the T/C (dose: 25.0 mg/kg/injection, schedule: Q#A X014 (sc), vehicle: steriod suspending solution) was 43 % of control. The T/C (dose: 50.0 mg/kg/injection, schedule: Q01DX007 (sc), vehicle: steriod suspending solution) was 32 % of control, the T/C (dose: 50.0 mg/kg/injection, schedule: Q#A X014 (sc), vehicle: steriod suspending solution) was 28 % of control and the T/C (dose: 100.0 mg/kg/injection, schedule: Q01DX007 (sc), vehicle: steriod suspending solution) was 25 % of control. For the same compound, the T/C (dose: 200.0 mg/kg/injection, schedule: Q01DX007 (sc), vehicle: steriod suspending solution) was 15 % of control.
